One assay deals with α-glucosidase from Saccharomyces cerevisiae (Saccharomyces cerevisiae, UniProt P53341). Description: α-glucosidase inhibition (pNPG, spectrophotometric). It counts as biochemical. Particulars: pNPG substrate, pH 6.8, 37 °C; read-out: IC50 [mM] inhibition of α-glucosidase by compounds isolated from fruit of Cornus alba. From the text: Acetonitrile (MeCN, UHPLC-grade), n-butanol (BuOH), chloroform (CHCl3), ethyl acetate (EtOAc), ethanol (EtOH) and methanol (MeOH) for extraction were obtained from POCH (Gliwice, Poland). Natural product reagent A (diphenylboric acid 2-aminoethyl ester) and quercetin 3-O-glucoside (isoquercitrin) were purchased from Carl Roth GmbH (Karlsruhe, Germany). […] Quercetin 3-O-galactoside (hyperoside) was purchased from HWI Analytik GmbH (Rheinzaberner, Germany). […] Water was obtained using Millipore Simfilter Simplicity UV (Molsheim, France) water purification system. HPLC-DAD-MS^n analysis was performed on a UHPLC-3000 RS system (Dionex, Germany) with DAD and an AmaZon SL ion trap mass spectrometer with an ESI interface (Bruker Daltonik GmbH, Germany). […] If needed, additional experiments, such as HSQC and HMBC were performed. The NMR spectra were acquired using Varian VNMRS 300 Oxford 300 MHz spectrometer (Bruker, Billerica, MA, USA).
α-glucosidase from Saccharomyces cerevisiae, sequence (P53341 whole entry): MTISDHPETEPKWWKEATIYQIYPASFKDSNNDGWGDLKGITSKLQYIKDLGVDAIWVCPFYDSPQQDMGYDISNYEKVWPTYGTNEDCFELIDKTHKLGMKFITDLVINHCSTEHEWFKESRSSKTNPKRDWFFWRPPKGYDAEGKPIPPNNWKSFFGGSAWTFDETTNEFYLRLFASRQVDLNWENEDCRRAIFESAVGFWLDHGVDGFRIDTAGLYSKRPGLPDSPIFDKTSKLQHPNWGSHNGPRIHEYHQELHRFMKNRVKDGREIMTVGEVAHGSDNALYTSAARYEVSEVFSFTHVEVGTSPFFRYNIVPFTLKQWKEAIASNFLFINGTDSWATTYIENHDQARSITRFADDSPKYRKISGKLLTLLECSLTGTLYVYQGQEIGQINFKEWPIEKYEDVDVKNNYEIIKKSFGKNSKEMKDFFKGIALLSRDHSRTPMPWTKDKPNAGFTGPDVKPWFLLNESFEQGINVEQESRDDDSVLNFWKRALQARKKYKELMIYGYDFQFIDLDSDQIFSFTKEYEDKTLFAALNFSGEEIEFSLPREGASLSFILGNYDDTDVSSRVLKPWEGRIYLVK
The α-glucosidase inhibition by extracts was determined spectrophotometrically according to the modified assay previously described. The colorimetric measurement of enzyme activity was based on the hydrolytic cleavage of a substrate, p-nitrophenyl-α-D-glucopyranoside (pNPG). Briefly, sample solution of tested extract or isolated compound (150 µl) dissolved in 0.1 M phosphate buffer (pH 6.8) was incubated with 50 µL of α-glucosidase solution (0.4 U/mL) at 37 °C. After 15 min of incubation, the substrate solution (0.7 mM in 0.1 M phosphate buffer, pH 6.8) was added and the second 15 min incubation at 37 °C was performed. The reaction was terminated by adding 50 µL sodium carbonate solution (0.2 M). The absorbance of p-nitrophenol was measured at 405 nm in a microplate reader (Synergy 4, Biotek, USA).
Turning to `O=C(C=Cc1ccc(O)cc1)OC1CC(O)(C(=O)O)CC(O)C1O` (centres unmarked) [compound 2, 5-O-coumaroylquinic acid], the IC50 – broadly, the concentration at which inhibition is half-maximal – came to 0.84 ± 0.14 mM.
For the molecule `COC(=O)C1(O)CC(O)C(O)C(OC(=O)/C=C/c2ccc(O)cc2)C1` (centres unmarked) [compound 3, 5-O-(E)-p-coumaroylquinic acid methyl ester], the IC50 came to 0.16 ± 0.01 mM.
As to `COC(=O)[C@H]1O[C@@H](Oc2c(-c3ccc(O)cc3)oc3cc(O)cc(O)c3c2=O)[C@H](O)[C@@H](O)[C@@H]1O` [compound 4, kaempferol 3-O-glucuronide 6″-methylester], the IC50 worked out at 0.21 ± 0.05 mM.
Still for that read-out and setting: under `OC[C@H]1O[C@@H](OCCc2ccc(O)c(O)c2)[C@H](O)[C@@H](O)[C@@H]1O` [compound 5, hydroxytyrosol glucoside] stands 1.46 ± 0.18 mM.

Another assay relates to glucosidase.
Assay: not given
The conditions noted are these: ref Dehghan et al., 2018; cited from earlier work. The arrangement: method as in Dehghan et al., 2018.
Consider `Cc1cc(O)c2c(c1)C(=O)c1cc(O)cc(O)c1C2=O` [emodin], for which the “anti-glucosidase activity (in words)” value was “relevant anti-glucosidase activity”.
Consider `COc1cc(O)c2c(c1)C(=O)c1cc(C)cc(O)c1C2=O` [physcion], for which the “anti-glucosidase activity (in words)” value is given as “relevant anti-glucosidase activity”.
With `C[C@H](CCc1ccc(O)cc1)O[C@@H]1O[C@H](CO)[C@@H](O)[C@H](O)[C@H]1O` [rhododendrin], the “anti-glucosidase activity (in words)” value was “relevant anti-glucosidase activity”.

Tested on in a further assay: not given
Assay: not given
Further details: method as in PMID 11958615. The conditions noted are these: concentration of 40 µM; cited from earlier work.
As for `OC[C@H]1O[C@@H](Oc2cc3c(O)cc(O)cc3[o+]c2-c2ccc(O)c(O)c2)[C@H](O)[C@@H](O)[C@H]1O` [cyanidin 3-O-β-galactoside], the antioxidant activity was 60.1%.
Take `OC[C@H]1O[C@@H](Oc2cc3c(O)cc(O)cc3[o+]c2-c2cc(O)c(O)c(O)c2)[C@H](O)[C@@H](O)[C@H]1O` [delphinidin 3-O-β-galactoside]: the antioxidant activity is listed as 70.2%.
For `OCC1OC(Oc2cc3c(O)cc(O)cc3[o+]c2-c2ccc(O)cc2)C(O)C(O)C1O` (stereo not drawn) [pelargonidin 3-O-β-galactoside], the antioxidant activity is on record as 40.3%.

Another assay has as its system PL.
Assay: not given
Further details: method as in doi:10.1016/j.jff.2017.04.005. The conditions noted are these: read-out: IC50 against PL activity; cited from earlier work.
Regarding `O=C(/C=C/c1ccc(O)c(O)c1)O[C@@H]1C[C@](O)(C(=O)O)C[C@@H](O)[C@H]1O` [compound 1, chlorogenic acid], the IC50 was 3810 µM.
In the case of `O=C(O)c1cc(O)c(O)c(O)c1` [gallic acid], the IC50 was 5050 µM.
For `O=c1c(O[C@@H]2O[C@H](CO)[C@@H](O)[C@H](O)[C@H]2O)c(-c2ccc(O)cc2)oc2cc(O)cc(O)c12` [kaempferol-3-O-glucoside], the IC50 is 3520 µM.
Take `O=c1c(O[C@@H]2O[C@H](CO)[C@@H](O)[C@H](O)[C@H]2O)c(-c2ccc(O)c(O)c2)oc2cc(O)cc(O)c12` [quercetin-3-O-glucoside]: the IC50 is 1740 µM.

The next assay deals with α-glucosidase.
Assay: not given
Further details: method as in doi:10.1016/j.jff.2017.04.005. The conditions noted are these: cited from earlier work.
For the molecule `O=C(O)/C=C/c1ccc(O)c(O)c1` [caffeic acid], the IC50 was 223 µM.
As for `COc1cc(/C=C/C(=O)O)ccc1O` [ferulic acid], the IC50 is 461 µM.
Take `O=C(O)c1cc(O)c(O)c(O)c1` [gallic acid]: the IC50 is 296 µM.
Take `O=c1c(O[C@@H]2O[C@H](CO)[C@@H](O)[C@H](O)[C@H]2O)c(-c2ccc(O)c(O)c2)oc2cc(O)cc(O)c12` [quercetin-3-O-glucoside]: the IC50 was 12.3 µM.
For the molecule kaempferol-3-O-rutinoside, the IC50 is 10.2 µM.

Tested on in a further assay: not listed separately
Description: DPPH radical scavenging assay. Particulars: half scavenging concentration; 30 min incubation, absorbance 518 nm. As to the method: The scavenging of DPPH radical was examined using a modified assay previously described. The equal volumes (100 µL) of ethanolic solution of DPPH (0.02 M) and extract samples dissolved in 50% (v/v) aqueous-ethanol were added into 96-well microplates and incubated for 30 min in the darkness. The absorbance was measured at 518 nm with microplate reader (Synergy 4, Biotek, USA). The blind samples were prepared in order to exclude color interference. Ascorbic acid was used as a positive control.
On the technique in general: DPPH is a stable violet radical that fades when it is reduced.
With `O=C1O[C@H]([C@@H](O)CO)C(O)=C1O` [Ascorbic acid], the “SC50 DPPH scavenging” value is 3.73 ± 0.83 µg/mL.

These data come from publication PMC7020211, “Inhibition of Digestive Enzymes and Antioxidant Activity of Extracts from Fruits of Cornus alba, Cornus sanguinea subsp. hungarica and Cornus florida–A Comparative Study” (Plants, 2020).
